In patent US6846637B1, “Fas peptides and antibodies for modulating apoptosis” (IMED AB, priority 1998, dated 2005):

Experiments:
[1] = test system: immunoglobulin preparations derived from pooled human serum (Gammagard); assay: ELISA reactivity of immunoglobulin preparations (Gammagard) to Fas peptides; assay type: binding; settings: O.D. 490 nm classes
Protocol: Similar experiments were performed with commercially available immunoglobulin preparations derived from pooled human serum enriched by immunosorbence for immunoglobulin fractions (Gammagard-Baxter, Hyland, Glendale, Calif. USA).

[2] = test system: antibodies in human sera of healthy blood donors; assay: ELISA reactivity of human serum to Fas peptides; assay type: binding; settings: for Reactivity to Fas peptides in ELISA, Human serum: O.D. 490 nm classes; for reactivity with human sera: sera of 30 healthy blood donors, in words
Description: The derived amino acid sequence (a.a.1-179) of the Fas protein (Itoh et al., 1991) was used for simultaneous multiple solid-phase peptide synthesis (Houghten et al, 1985) of 20 amino acid long peptides (with a 10-residue overlap).

[3] = test system: PHA-stimulated T cell blasts; assay: Proliferation of PHA-stimulated T-cell blasts (Alamar Blue); assay type: cell-based, human; settings: anti-CD3 alone
Protocol: PBMC were stimulated with phytohemagglutinin (PHA) ([…]) (Pharmacia Biotech, Sweden) for 48 hours. […] After 48 hours incubation, the proliferation was assessed by Alamar Blue Assay (Biosource International, USA.) and the results were expressed as percent difference in reduction of (fluorometric/colorometric) REDOX indicator between antibody coated and control (without antibodies) wells according to manufacturer's instructions (AMS Biotechnology AB, Sweden).

[4] = test system: Jurkat leukemia T cells; assay: TUNEL assay of apoptosis of Jurkat cells on immobilized anti-Fas peptide antibodies; assay type: cell-based, human; settings: immobilized antibody, 48 h, TUNEL/FACS; control well 18%
Protocol: The antibody-concentrations were anti-Fp5 (10 μg/ml), anti-Fp11 (10 μg/ml) and anti-Fpl7 (40 μg/ml). Cells were collected after 48 h incubation, and the fragmented DNA of apoptotic cells was assessed by Apoptosis Detection System, Fluorescein (Promega, Madison, Wis.) based on TdT-mediated dUTP Nick-End Labeling (TUNEL) assay and FACS analysis (CellQuest software, Becton Dickinson) according to manufacturer's instructions. For apoptosis inhibition experiments, Jurkat cell culture medium was supplemented with 200 ng/ml of recombinant Fas-Fc chimera (R&D Systems Europe Ltd, Abingdon, UK). Inhibition of CH-11-mediated apoptosis was performed as described in Fadeel et al., 1997. Data are presented as the mean value of four independent experiments, and the standard error of mean is indicated by the error bars.
Ability to mediate apoptosis and inhibition of proliferation was determined using antibodies immobilized to plastic surface.

[5] = biological target: Fas peptide Fp5 (Gly40-Val59) (human); assay: peptide ELISA; legend: + = <0.5 O.D. 490 nm
[6] = biological target: Fas peptide Fp17 (Trp160-Val179) (human); assay: peptide ELISA; legend: + = <0.5 O.D. 490 nm
[7] = biological target: Fas peptide Fp11 (Glu100-Cys119) (human); assay: peptide ELISA; legend: +++ > 1.0 O.D.
Fas peptide Fp11 (Glu100-Cys119) (human), sequence (peptide, as listed by the source): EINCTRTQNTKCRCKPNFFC

| Substance | Reactivity to Fas peptides in ELISA, Immunoglobulin preparations (Gammagard) [1] | Reactivity to Fas peptides in ELISA, Human serum [2] | reactivity with human sera [2] | other results |
| --- | --- | --- | --- | --- |
| KCRCKPNFFCNSTVCEHCDP [Fp12] | ++ (++ = <1.0 O.D.) | ++ (++ = <1.0 O.D.) |  |  |
| WLCLLLLPIPLIVWVKRKEV [Fp17] | + (+ = <0.5 O.D. 490 nm) | +++ (+++ > 1.0 O.D.) | reactive | serum titers against peptide ([2]; 30 healthy donors, comparison of Fp5, Fp11, Fp17): lowest mean titers |
| anti-CD3: purified anti-CD3 monoclonal antibody (OKT-3, 10 μg/ml) |  |  |  | reduction of proliferation [3]: 12% |
| LIVWVKRKEVQKTCRKHRKE [Fp18] | +++ (+++ > 1.0 O.D.) |  |  |  |
| HFSSKCRRCRLCDEGHGLEV [Fp9] | ++ (++ = <1.0 O.D.) |  |  |  |
| GQFCHKPCPPGERKARDCTV [Fp5] | + (+ = <0.5 O.D. 490 nm) | ++ (++ = <1.0 O.D.) | reactive | apoptosis induced in Jurkat leukemia cells [4]: 25% |
| KEEGSRSNLGWLCLLLLPIP [Fp16] | + (+ = <0.5 O.D. 490 nm) |  | low or no reactivity |  |
| QEGKEYTDKAHFSSKCRRCR [Fp8] | +++ (+++ > 1.0 O.D.) |  |  |  |
| Immunoglobulin preparations (Gammagard) (antibody) |  |  |  | O.D. 490 nm [5]: < 0.5 od; O.D. 490 nm [6]: < 0.5 od; O.D. 490 nm [7]: > 1 od |
